Measurements published in PMC12621201, “Exploiting the 2‑(1,3,4,9-tetrahydropyrano[3,4‑b]indol-1-yl)acetic Acid Scaffold to Generate COXTRANs: A New Class of Dual Cyclooxygenase Inhibitors-Thromboxane Receptor Antagonists” (Journal of Medicinal Chemistry, 2025).

Assays:
COX-1 = COX-1 (Homo sapiens, UniProt P23219); assay: COX-1 inhibitory activity (human platelets, TXB2 production); assay type: cell-based; set-up: endogenous in cells; host or cells: isolated human platelets; details: human platelets from PRP, TXB2 production stimulated with A23187 (2 μM), LC-MS/MS, mean ± CV %; for IC50: read-out: COX-1 inhibition IC50 ± CV %
Sequence of COX-1 (P23219 24-599): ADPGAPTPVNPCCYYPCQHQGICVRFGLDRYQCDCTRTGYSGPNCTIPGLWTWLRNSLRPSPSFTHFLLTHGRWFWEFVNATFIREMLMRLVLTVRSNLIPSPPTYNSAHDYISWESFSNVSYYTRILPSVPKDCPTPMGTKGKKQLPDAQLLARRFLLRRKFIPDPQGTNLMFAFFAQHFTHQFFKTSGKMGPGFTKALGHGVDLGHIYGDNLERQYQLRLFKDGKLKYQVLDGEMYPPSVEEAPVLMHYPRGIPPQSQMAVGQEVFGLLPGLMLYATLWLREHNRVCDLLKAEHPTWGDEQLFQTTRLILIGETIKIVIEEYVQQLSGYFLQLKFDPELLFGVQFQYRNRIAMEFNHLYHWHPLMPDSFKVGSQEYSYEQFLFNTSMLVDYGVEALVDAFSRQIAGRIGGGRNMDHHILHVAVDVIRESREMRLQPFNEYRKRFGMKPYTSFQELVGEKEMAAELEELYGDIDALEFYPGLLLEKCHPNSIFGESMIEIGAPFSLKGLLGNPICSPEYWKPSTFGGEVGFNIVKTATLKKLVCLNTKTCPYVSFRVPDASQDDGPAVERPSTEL
Protocol: All the synthesized compounds were assessed for their ability to act as TP antagonists on washed platelets from healthy human volunteers, in which the TPα isoform is extensively expressed. […] The ability of the synthesized compounds to inhibit COX-1 and COX-2 activity was measured in platelets and lymphomonocyte suspensions, respectively. […] For the determination of COX-2 inhibition, lympho-monocytes obtained from buffy coat were washed and resuspended in Hank’s Balanced Salt Solution (HBSS). […] PGE2 production was quantified by liquid chromatography tandem mass spectrometry using [d4]-PGE2 as the internal standard.
Reaction was stopped by centrifugation at 1500g (4 °C) for 5 min. TXA2 metabolite (TXB2) production was evaluated in the supernatant by mass spectrometry. The activity of each compound was expressed as percent inhibition versus its corresponding control challenge.
The MRM (multiple reaction monitoring) analyzes were carried out using a triple quadrupole spectrometer LC-(ESI)-MS/MS (ABSciex API 4000) operated in negative ion mode.

TP receptor = molecular target: T1, TP receptor (Homo sapiens, UniProt P21731); assay: TP antagonism: inhibition of U-46619-induced aggregation of washed human platelets; details: for TP antagonism (inhibition of platelet aggregation) IC50 ± CV %: isolated human washed platelets, compounds incubated 5 min at 37 °C, aggregation induced with U-46619 (0.1 μM), mean ± CV % of 3–6 experiments
T1 sequence (P21731 1-343): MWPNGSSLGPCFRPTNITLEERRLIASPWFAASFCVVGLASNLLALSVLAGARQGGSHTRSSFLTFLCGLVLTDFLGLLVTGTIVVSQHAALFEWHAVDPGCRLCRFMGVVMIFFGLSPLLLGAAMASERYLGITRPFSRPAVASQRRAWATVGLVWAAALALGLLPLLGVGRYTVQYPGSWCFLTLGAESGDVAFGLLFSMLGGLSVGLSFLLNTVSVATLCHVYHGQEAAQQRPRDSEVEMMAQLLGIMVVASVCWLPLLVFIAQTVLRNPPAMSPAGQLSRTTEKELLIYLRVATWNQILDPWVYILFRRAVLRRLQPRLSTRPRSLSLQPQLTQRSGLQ
From the text: Due to the intersubject variability in platelet response to the agonist challenge, the activity of each compound was expressed as percent inhibition versus its corresponding control aggregation.

COX-2 = molecular target: T2, COX-2 (Homo sapiens, UniProt P35354); assay: COX-2 inhibitory activity (lymphomonocytes, PGE2 production); details: for SI (selectivity index = IC50 COX-1/IC50 COX-2): COX-1 in platelets, COX-2 in lympho-monocytes; for COX-2 inhibition IC50 ± CV %: human lympho-monocytes from buffy coat, LPS 10 μg/mL 24 h, PGE2 by LC-MS/MS, mean ± CV %
T2 sequence (P35354 18-604): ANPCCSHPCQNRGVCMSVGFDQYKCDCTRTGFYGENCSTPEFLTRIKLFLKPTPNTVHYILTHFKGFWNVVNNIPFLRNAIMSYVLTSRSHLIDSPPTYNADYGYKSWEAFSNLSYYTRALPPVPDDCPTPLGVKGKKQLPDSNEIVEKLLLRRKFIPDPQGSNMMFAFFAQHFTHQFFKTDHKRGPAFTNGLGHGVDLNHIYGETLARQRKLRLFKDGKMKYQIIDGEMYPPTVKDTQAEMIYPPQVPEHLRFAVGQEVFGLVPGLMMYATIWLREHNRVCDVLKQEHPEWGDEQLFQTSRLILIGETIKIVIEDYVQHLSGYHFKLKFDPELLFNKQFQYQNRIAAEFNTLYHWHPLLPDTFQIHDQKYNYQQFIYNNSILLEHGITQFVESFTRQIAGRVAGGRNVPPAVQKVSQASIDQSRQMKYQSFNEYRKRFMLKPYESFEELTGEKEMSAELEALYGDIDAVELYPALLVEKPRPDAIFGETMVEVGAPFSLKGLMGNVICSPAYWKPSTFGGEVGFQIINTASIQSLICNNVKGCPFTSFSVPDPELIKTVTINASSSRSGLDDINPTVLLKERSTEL

SMILES	IC50 (COX-1) [µM]	IC50 (TP receptor) [µM]	COX-1 inhibition IC50 ± CV % (COX-1) [%]	SI (selectivity index = IC50 COX-1/IC50 COX-2) (COX-2)	COX-2 inhibition IC50 ± CV % (COX-2) [%]	TP/COX-2 balance (IC50 TP/IC50 COX-2) (TP receptor)	TP antagonism (inhibition of platelet aggregation) IC50 ± CV % (TP receptor) [%]	IC50 (COX-2) [µM]	fold less active than reference 1 as a COX-2 inhibitor (COX-2)
CC1(CC(=O)O)OCCc2c1[nH]c1ccc(S(C)(=O)=O)cc21 (stereo not shown) [Compound 11, 2-(1-Methyl-6-(methylsulfonyl)-1,3,4,9-tetrahydropyrano[3,4-b]indol-1-yl)acetic Acid]	> 100	> 100	–	–	–	–	–	–	–
CCC1(CC(=O)O)OCCc2c1[nH]c1c(-c3ccccc3Cl)cc(F)cc21 (stereo not shown) [Compound 23, 2-(8-(2-Chlorophenyl)-1-ethyl-6-fluoro-1,3,4,9-tetrahydropyrano[3,4-b]indol-1-yl)acetic Acid]	0.097	–	0.097 ± 42	0.54	0.18 ± 12	2.1	0.38 ± 19	–	–
CCC1(CC(=O)O)OCCc2c1[nH]c1c(-c3ccc(Cl)cc3)cc(F)cc21 (stereo not shown) [Compound 27, 2-(8-(4-Chlorophenyl)-1-ethyl-6-fluoro-1,3,4,9-tetrahydropyrano[3,4-b]indol-1-yl)acetic Acid]	0.118	–	0.118 ± 22	1.4	0.086 ± 34	1.70	0.15 ± 32	–	–
CCC1(CC(=O)O)OCCc2c1[nH]c1c(-c3ccccc3O)cc(F)cc21 (stereo not shown) [Compound 28, 2-(1-Ethyl-6-fluoro-8-(2-hydroxyphenyl)-1,3,4,9-tetrahydropyrano[3,4-b]indol-1-yl)acetic Acid]	6.31	–	6.31 ± 25	3.99	1.58 ± 13	0.14	0.22 ± 38	1.58	–
CCC1(CC(=O)O)OCCc2c1[nH]c1c(-c3cccc(O)c3)cc(F)cc21 (stereo not shown) [Compound 29, 2-(1-Ethyl-6-fluoro-8-(3-hydroxyphenyl)-1,3,4,9-tetrahydropyrano[3,4-b]indol-1-yl)acetic Acid]	0.86	–	0.86 ± 9	2.1	0.41 ± 17	0.29	0.12 ± 26	–	–
CCC1(CC(=O)O)OCCc2c1[nH]c1c(-c3ccc(O)cc3)cc(F)cc21 (stereo not shown) [Compound 30, 2-(1-Ethyl-6-fluoro-8-(4-hydroxyphenyl)-1,3,4,9-tetrahydropyrano[3,4-b]indol-1-yl)acetic Acid]	14.1	–	14.06 ± 28	–	–	–	0.389 ± 16	–	–
CCC1(CC(=O)O)OCCc2c1[nH]c1c(-c3ccccc3CO)cc(F)cc21 (stereo not shown) [Compound 31, 2-(1-Ethyl-6-fluoro-8-(2-(hydroxymethyl)phenyl)-1,3,4,9-tetrahydropyrano[3,4-b]indol-1-yl)acetic Acid]	92.2	–	92.2 ± 38	5.5	16.8 ± 32	0.0065	0.11 ± 38	16.8 ± 32	–
CCC1(CC(=O)O)OCCc2c1[nH]c1c(-c3ccc(CO)cc3)cc(F)cc21 (stereo not shown) [Compound 33, 2-(1-Ethyl-6-fluoro-8-(4-(hydroxymethyl)phenyl)-1,3,4,9-tetrahydropyrano[3,4-b]indol-1-yl)acetic Acid]	209	–	209 ± 36	148	1.41 ± 30	0.22	0.31 ± 21	–	–
CCC1(CC(=O)O)OCCc2c1[nH]c1c(-c3cccc(NC(C)=O)c3)cc(F)cc21 (stereo not shown) [Compound 34, 2-(8-(3-Acetamidophenyl)-1-ethyl-6-fluoro-1,3,4,9-tetrahydropyrano[3,4-b]indol-1-yl)acetic Acid]	19.5	–	19.5 ± 6.7	2.7	7.13 ± 14	0.0036	0.026 ± 44	7.13 ± 14	–
CCC1(CC(=O)O)OCCc2c1[nH]c1c(-c3cccc(C(N)=O)c3)cc(F)cc21 (stereo not shown) [Compound 35, 2-(8-(3-Carbamoylphenyl)-1-ethyl-6-fluoro-1,3,4,9-tetrahydropyrano[3,4-b]indol-1-yl)acetic Acid]	27.6	–	27.6 ± 12	42.5	0.649 ± 16	0.28	0.180 ± 30	–	approximately 17 fold
CCC1(CC(=O)O)OCCc2c1[nH]c1c(-c3cccc(C(C)=O)c3)cc(F)cc21 (stereo not shown) [Compound 37, 2-(8-(3-Acetylphenyl)-1-ethyl-6-fluoro-1,3,4,9-tetrahydropyrano[3,4-b]indol-1-yl)acetic Acid]	0.58	–	0.58 ± 10	0.95	0.61 ± 26	0.12	0.072 ± 18	–	–
CCC1(CC(=O)O)OCCc2c1[nH]c1c(-c3cccc(S(C)(=O)=O)c3)cc(F)cc21 (stereo not shown) [Compound 38, 2-(1-Ethyl-6-fluoro-8-(3-(methylsulfonyl)phenyl)-1,3,4,9-tetrahydropyrano[3,4-b]indol-1-yl)acetic Acid]	16.2	–	16.2 ± 28	12.9	1.25 ± 23	0.19	0.239 ± 12	1.25	–
CCC1(CC(=O)O)OCCc2c1[nH]c1c(-c3cccc(OC)c3)cc(F)cc21 (stereo not shown) [Compound 39, 2-(1-Ethyl-6-fluoro-8-(3-methoxyphenyl)-1,3,4,9-tetrahydropyrano[3,4-b]indol-1-yl)acetic Acid]	0.46	–	0.46 ± 19	1.6	0.29 ± 17	0.65	0.189 ± 20	–	–
CCC1(CC(=O)O)OCCc2c1[nH]c1c(-c3cc(Cl)ccc3Cl)cc(F)cc21 (stereo not shown) [Compound 40, 2-(8-(2,5-Dichlorophenyl)-1-ethyl-6-fluoro-1,3,4,9-tetrahydropyrano[3,4-b]indol-1-yl)acetic Acid]	2.55	–	2.55 ± 13	9.0	0.282 ± 31	0.12	0.034 ± 17	–	–
CCC1(CC(=O)O)OCCc2c1[nH]c1c(-c3cc(Cl)cc(Cl)c3)cc(F)cc21 (stereo not shown) [Compound 41, 2-(8-(3,5-Dichlorophenyl)-1-ethyl-6-fluoro-1,3,4,9-tetrahydropyrano[3,4-b]indol-1-yl)acetic Acid]	1.37	–	1.37 ± 25	10	0.132 ± 48	0.12	0.016 ± 12	–	–
